Laboratory results as given in PubChem BioAssay (NCI).
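96-well plates; 48 h exposure; 5 concentrations. Endpoints by linear interpolation between flanking doses. Not reached: highest tested concentration assigned. GI50 is the concentration that inhibits growth by half. TGI is the concentration that stops growth completely.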

Columns and labels:
Assay in all cases: growth of human tumour cells (NCI), 48 h
[1] = tested on: OVCAR-4 ovarian
[2] = tested on: CCRF-CEM leukemia
[3] = tested on: HCT-116 colon
[4] = tested on: NCI-H226 lung
[5] = tested on: MALME-3M melanoma
[6] = tested on: NCI-H522 lung
[7] = tested on: SF-268 CNS
[8] = tested on: SR leukemia
[9] = tested on: MDA-MB-468 breast
[10] = tested on: SK-MEL-5 melanoma
[11] = tested on: OVCAR-3 ovarian
[12] = tested on: 786-0 renal
[13] = tested on: HT29 colon
[14] = tested on: NCI-H460 lung
[15] = tested on: HCC-2998 colon
[16] = tested on: COLO 205 colon
[17] = tested on: UACC-62 melanoma
[18] = tested on: MCF7 breast
[19] = tested on: HCT-15 colon
[20] = tested on: UO-31 renal
[21] = tested on: KM12 colon
[22] = tested on: K-562 leukemia
[23] = tested on: RXF 393 renal
[24] = tested on: HOP-92 NSCLC
[25] = tested on: UACC-257 melanoma
[26] = tested on: SNB-19 CNS
[27] = tested on: BT-549 breast
[28] = tested on: U251 CNS
[29] = tested on: M14 melanoma
[30] = tested on: SK-MEL-28 melanoma
[31] = tested on: OVCAR-5 ovarian
[32] = tested on: EKVX NSCLC
[33] = tested on: LOX IMVI melanoma
[34] = tested on: MOLT-4 leukemia
[35] = tested on: TK-10 renal
[36] = tested on: CAKI-1 renal
[37] = tested on: T-47D breast
[38] = tested on: HOP-62 NSCLC
[39] = tested on: ACHN renal
[40] = tested on: MDA-MB-231 breast
[41] = tested on: DU-145 prostate
[42] = tested on: NCI-H23 lung
[43] = tested on: PC-3 prostate
[44] = tested on: OVCAR-8 ovarian
[45] = tested on: A549 NSCLC
[46] = tested on: SNB-75 CNS
[47] = tested on: IGROV1 ovarian
[48] = tested on: SF-295 CNS
[49] = tested on: A498 renal
[50] = tested on: HS 578T breast
[51] = tested on: SN12C renal
[52] = tested on: HL-60(TB) leukemia
[53] = tested on: SK-OV-3 ovarian
[54] = tested on: SW-620 colon
[55] = tested on: RPMI-8226 leukemia
[56] = tested on: SF-539 CNS

Question: For `CN(C)c1ccnc(CNCCSC2(c3ccc(C(F)(F)F)cc3)c3ccccc3CCc3ccccc32)c1`, which GI50 [1] is on record?
Answer: 4050 nM

Question: What about the TGI [1] of the same molecule?
Answer: 17300 nM

Question: What about the GI50 [2] of the same molecule?
Answer: 370 nM

Question: And the TGI [2]?
Answer: 6350 nM

Question: And the GI50 [3]?
Answer: 365 nM

Question: What about the TGI [3] of the same molecule?
Answer: 1780 nM

Question: What about the GI50 [4] of the same molecule?
Answer: 2380 nM

Question: What about the TGI [4] of the same molecule?
Answer: 13900 nM

Question: What about the GI50 [5] of the same molecule?
Answer: 1440 nM

Question: What about the TGI [5] of the same molecule?
Answer: 3090 nM

Question: What about the GI50 [6] of the same molecule?
Answer: 473 nM

Question: And the TGI [6]?
Answer: 4260 nM

Question: And the GI50 [7]?
Answer: 3240 nM

Question: And the TGI [7]?
Answer: 17700 nM

Question: What about the GI50 [8] of the same molecule?
Answer: 345 nM

Question: And the TGI [8]?
Answer: 1620 nM

Question: What about the GI50 [9] of the same molecule?
Answer: 293 nM

Question: What about the TGI [9] of the same molecule?
Answer: 906 nM

Question: And the GI50 [10]?
Answer: 1150 nM

Question: What about the TGI [10] of the same molecule?
Answer: 2460 nM

Question: What about the GI50 [11] of the same molecule?
Answer: 1310 nM

Question: What about the TGI [11] of the same molecule?
Answer: 10500 nM

Question: What about the GI50 [12] of the same molecule?
Answer: 1900 nM

Question: What about the TGI [12] of the same molecule?
Answer: 11200 nM

Question: And the GI50 [13]?
Answer: 1680 nM

Question: What about the TGI [13] of the same molecule?
Answer: 4110 nM

Question: And the GI50 [14]?
Answer: 603 nM

Question: What about the TGI [14] of the same molecule?
Answer: 2540 nM

Question: What about the GI50 [15] of the same molecule?
Answer: 537 nM

Question: What about the TGI [15] of the same molecule?
Answer: 1830 nM

Question: And the GI50 [16]?
Answer: 1020 nM

Question: And the TGI [16]?
Answer: 2420 nM

Question: And the GI50 [17]?
Answer: 3240 nM

Question: What about the TGI [17] of the same molecule?
Answer: 14500 nM

Question: What about the GI50 [18] of the same molecule?
Answer: 356 nM

Question: And the TGI [18]?
Answer: 4320 nM

Question: What about the GI50 [19] of the same molecule?
Answer: 403 nM

Question: And the TGI [19]?
Answer: 11000 nM

Question: What about the GI50 [20] of the same molecule?
Answer: 2460 nM

Question: What about the TGI [20] of the same molecule?
Answer: 16000 nM

Question: And the GI50 [21]?
Answer: 1260 nM

Question: And the TGI [21]?
Answer: 5160 nM

Question: What about the GI50 [22] of the same molecule?
Answer: 336 nM

Question: And the TGI [22]?
Answer: 1860 nM

Question: What about the GI50 [23] of the same molecule?
Answer: 2170 nM

Question: What about the TGI [23] of the same molecule?
Answer: 9120 nM

Question: And the GI50 [24]?
Answer: 2120 nM

Question: What about the TGI [24] of the same molecule?
Answer: 11700 nM

Question: What about the GI50 [25] of the same molecule?
Answer: 3670 nM

Question: What about the TGI [25] of the same molecule?
Answer: 15900 nM

Question: What about the GI50 [26] of the same molecule?
Answer: 1240 nM

Question: What about the TGI [26] of the same molecule?
Answer: 14300 nM

Question: And the GI50 [27]?
Answer: 2760 nM

Question: What about the TGI [27] of the same molecule?
Answer: 7360 nM

Question: And the GI50 [28]?
Answer: 439 nM

Question: And the TGI [28]?
Answer: 3560 nM

Question: What about the GI50 [29] of the same molecule?
Answer: 465 nM

Question: And the TGI [29]?
Answer: 2970 nM

Question: What about the GI50 [30] of the same molecule?
Answer: 3760 nM

Question: And the TGI [30]?
Answer: 15900 nM

Question: What about the GI50 [31] of the same molecule?
Answer: 2040 nM

Question: What about the TGI [31] of the same molecule?
Answer: 9120 nM

Question: What about the GI50 [32] of the same molecule?
Answer: 653 nM

Question: And the TGI [32]?
Answer: 12700 nM

Question: What about the GI50 [33] of the same molecule?
Answer: 1140 nM

Question: And the TGI [33]?
Answer: 2430 nM

Question: What about the GI50 [34] of the same molecule?
Answer: 1600 nM

Question: And the TGI [34]?
Answer: 4450 nM

Question: What about the GI50 [35] of the same molecule?
Answer: 3910 nM

Question: And the TGI [35]?
Answer: 16100 nM

Question: What about the GI50 [36] of the same molecule?
Answer: 2110 nM

Question: And the TGI [36]?
Answer: 14800 nM

Question: And the GI50 [37]?
Answer: 3420 nM

Question: And the TGI [37]?
Answer: 15600 nM

Question: What about the GI50 [38] of the same molecule?
Answer: 2200 nM

Question: What about the TGI [38] of the same molecule?
Answer: 13600 nM

Question: What about the GI50 [39] of the same molecule?
Answer: 909 nM

Question: And the TGI [39]?
Answer: 15000 nM

Question: And the GI50 [40]?
Answer: 479 nM

Question: And the TGI [40]?
Answer: 2750 nM

Question: What about the GI50 [41] of the same molecule?
Answer: 3080 nM

Question: And the TGI [41]?
Answer: 11300 nM

Question: And the GI50 [42]?
Answer: 2720 nM

Question: What about the TGI [42] of the same molecule?
Answer: 11800 nM

Question: What about the GI50 [43] of the same molecule?
Answer: 1050 nM

Question: What about the TGI [43] of the same molecule?
Answer: 12000 nM

Question: And the GI50 [44]?
Answer: 739 nM

Question: What about the TGI [44] of the same molecule?
Answer: 10800 nM

Question: What about the GI50 [45] of the same molecule?
Answer: 1300 nM

Question: What about the TGI [45] of the same molecule?
Answer: 15100 nM

Question: And the GI50 [46]?
Answer: 1840 nM

Question: What about the TGI [46] of the same molecule?
Answer: 8920 nM

Question: What about the GI50 [47] of the same molecule?
Answer: 1400 nM

Question: What about the TGI [47] of the same molecule?
Answer: 13600 nM

Question: What about the GI50 [48] of the same molecule?
Answer: 467 nM

Question: What about the TGI [48] of the same molecule?
Answer: 2340 nM

Question: What about the GI50 [49] of the same molecule?
Answer: 14000 nM

Question: What about the TGI [49] of the same molecule?
Answer: 32100 nM

Question: What about the GI50 [50] of the same molecule?
Answer: 1620 nM

Question: What about the TGI [50] of the same molecule?
Answer: 7580 nM

Question: What about the GI50 [51] of the same molecule?
Answer: 590 nM

Question: What about the TGI [51] of the same molecule?
Answer: 8250 nM

Question: And the GI50 [52]?
Answer: 394 nM

Question: And the TGI [52]?
Answer: 1960 nM

Question: And the GI50 [53]?
Answer: 3320 nM

Question: What about the TGI [53] of the same molecule?
Answer: 13400 nM

Question: And the GI50 [54]?
Answer: 446 nM

Question: And the TGI [54]?
Answer: 12500 nM

Question: And the GI50 [55]?
Answer: 1180 nM

Question: And the TGI [55]?
Answer: 6420 nM

Question: And the GI50 [56]?
Answer: 675 nM

Question: And the TGI [56]?
Answer: 2470 nM
